Experimental findings from patent publication US8969325B2, “TRPV1 antagonists” (AbbVie Inc., priority 2011, dated 2015) are described below.

pIC50: −log10 of the molar value.

The target in assay [1] is T1, human TRPV1 (Homo sapiens (Human), UniProt Q8NER1). In words: Acid Activation Assay (pH 5.0, intracellular Ca2+, FLIPR). It counts as cell-based. Particulars: percentage of the maximal pH 5.0-induced response remaining; recombinant HEK293 hTRPV1 cells; maximum concentration tested 37.5 μM. The protocol:
Dulbecco's modified Eagle's medium (DMEM) with 4.5 m g/mL D-glucose, fetal bovine serum, L-glutamine, and 2-morpholinoethanesulfonic acid (MES) were purchased from Sigma-Aldrich Co. (St. Louis, Mo.). Dulbecco's phosphate-buffered saline (DPBS) with Ca^2+, Mg^2+, and 1 mg/mL D-glucose (pH 7.4), Geneticin®, 0.25% trypsin-1 mM EDTA, and penicillin-streptomycin were purchased from Invitrogen Corp. (Carlsbad, Calif.). The FLIPR® Calcium 4 assay kit was purchased from Molecular Devices (Sunnyvale, Calif.).
The cDNA for human TRPV1 (hTRPV1) was isolated by reverse transcriptase-polymerase chain reaction (RT-PCR) from human small intestine poly A+ RNA supplied by Clontech (Palo Alto, Calif.) using primers designed surrounding the initiation and termination codons identical to the published sequences (Hayes et al. Pain 2000, 88, 205-215). The resulting cDNA PCR products were subcloned into pCIneo mammalian expression vector (Promega) and fully sequenced using fluorescent dye-terminator reagents (Prism, PerkinElmer Applied Biosystems Division) and a PerkinElmer Applied Biosystems Model 373 DNA sequencer or Model 310 genetic analyzer. Expression plasmids encoding the hTRPV1 cDNA were transfected into HEK293 cells using Lipofectamine®. Forty-eight hours after transfection, the neomycin-resistant cells were selected with growth medium containing 800 μg/mL Geneticin (Life Technologies, formerly Gibco BRL). Surviving individual colonies were isolated and screened for TRPV1 activity. Cells expressing recombinant TRPV1 were maintained at 37° C. in DMEM containing 4 mM L-glutamine, 300 μg/mL G418 (Calbiochem) and 10% fetal bovine serum under a humidified 5% CO2 atmosphere.
The functional activity of compounds at the TRPV1 receptor was determined by measurement of intracellular Ca^2+ levels ([Ca^2+]i) using the Fluorescence Imaging Plate Reader (FLIPR)TETRA®. All compounds were tested over a 12-point one-half-log concentration range with 37.5 μM being the maximum concentration tested. Compound stocks, 10 mM, were prepared in DMSO, and diluted serially across a 384-well plate using a Bravo BenchCel workstation (Agilent Technologies, Santa Clara, Calif.). On the day prior to the experiment, the recombinant HEK293 cells expressing human TRPV1 (hTRPV1) were removed from tissue culture flasks and plated in growth medium into black-walled clear-bottom 384-well Biocoat™ poly-D-lysine assay plates (BD Biosciences, Bedford, Mass.) using a Multidrop® dispenser (ThermoScientific, Waltham, Mass.). On the day of the experiment growth medium was removed, and the no-wash FLIPR® Calcium-4 dye (λEX=470-495 nm, λEM=515-575 nm) was added to each well using the Multidrop® dispenser. The plated cells were incubated for 90-120 min in the dark at 25° C. The test compounds dissolved in DMSO were then added to the plates using an Agilent Bravo workstation (Agilent Technologies Inc., Santa Clara, Calif.). Three minutes later, a pH 5.0 solution was added to each well. Reagents were delivered at a rate of 40 μL/sec, and the final assay volume was 80 μL. Acidic pH solutions were prepared by titration of DPBS/MES with 1 N HCl. The intensity of the fluorescence was captured and digitally transferred to an interfaced PC. The maximum peak measured for the concentration range tested was used to calculate the corresponding peak increase in fluorescence over baseline (relative fluorescence units) which was expressed as the percentage (max % remain) of the maximal pH 5.0-induced response.
Table 1 reports the percentage (max % remain) of the maximal pH 5.0-induced response measured for the compounds tested in the recombinant HEK293 cell assay. Most of the compounds tested inhibited calcium flux only partially following TRPV1 activation by the pH 5.0 solution.

Assay [2] concerns the target T1, human TRPV1. In words: Capsaicin Activation Assay (intracellular Ca2+, FLIPR). In kind it is cell-based. To be noted: recombinant HEK293 cells expressing hTRPV1, 50 nM capsaicin. The procedure:
(Logan, Utah). Dulbecco's phosphate-buffered saline (D-PBS) (with 1 mg/mL glucose and 3.6 mg/l Na pyruvate, without phenol red), L-glutamine, hygromycin B, and Lipofectamine® were obtained from Life Technologies (Grand Island, N.Y.). G418 sulfate was obtained from Calbiochem-Novabiochem Corp. (San Diego, Calif.). […] (St. Louis, Mo.). […] The cDNA for human TRPV1 (hTRPV1) was isolated by reverse transcriptase-polymerase chain reaction (RT-PCR) from human small intestine poly A+ RNA supplied by Clontech (Palo Alto, Calif.) using primers designed surrounding the initiation and termination codons identical to the published sequences (Hayes et al. […] The resulting cDNA PCR products were subcloned into pCIneo mammalian expression vector (Promega) and fully sequenced using fluorescent dye-terminator reagents (Prism, PerkinElmer Applied Biosystems Division) and a PerkinElmer Applied Biosystems Model 373 DNA sequencer or Model 310 genetic analyzer. Expression plasmids encoding the hTRPV1 cDNA were transfected into HEK293 cells using Lipofectamine®. Forty-eight hours after transfection, the neomycin-resistant cells were selected with growth medium containing 800 μg/mL Geneticin (Life Technologies, formerly Gibco BRL). Surviving individual colonies were isolated and screened for TRPV1 activity. […] Compound stocks, 10 mM, were prepared in DMSO, and diluted serially across a 384-well plate using a Bravo BenchCel workstation (Agilent Technologies, Santa Clara, Calif.). […] On the day prior to the experiment, the recombinant HEK293 cells expressing human TRPV1 (hTRPV1) were removed from tissue culture flasks and plated in growth medium into black-walled clear-bottom 384-well Biocoat™ poly-D-lysine assay plates (BD Biosciences, Bedford, Mass.) using a Multidrop® dispenser (ThermoScientific, Waltham, Mass.). […] Molecular Devices, Sunnyvale, Calif.) was added to each well using the Multidrop® dispenser. […] Fluorescence readings were made at 1 to 5 second intervals over the course of the experimental run.

T1 sequence (Q8NER1 whole entry): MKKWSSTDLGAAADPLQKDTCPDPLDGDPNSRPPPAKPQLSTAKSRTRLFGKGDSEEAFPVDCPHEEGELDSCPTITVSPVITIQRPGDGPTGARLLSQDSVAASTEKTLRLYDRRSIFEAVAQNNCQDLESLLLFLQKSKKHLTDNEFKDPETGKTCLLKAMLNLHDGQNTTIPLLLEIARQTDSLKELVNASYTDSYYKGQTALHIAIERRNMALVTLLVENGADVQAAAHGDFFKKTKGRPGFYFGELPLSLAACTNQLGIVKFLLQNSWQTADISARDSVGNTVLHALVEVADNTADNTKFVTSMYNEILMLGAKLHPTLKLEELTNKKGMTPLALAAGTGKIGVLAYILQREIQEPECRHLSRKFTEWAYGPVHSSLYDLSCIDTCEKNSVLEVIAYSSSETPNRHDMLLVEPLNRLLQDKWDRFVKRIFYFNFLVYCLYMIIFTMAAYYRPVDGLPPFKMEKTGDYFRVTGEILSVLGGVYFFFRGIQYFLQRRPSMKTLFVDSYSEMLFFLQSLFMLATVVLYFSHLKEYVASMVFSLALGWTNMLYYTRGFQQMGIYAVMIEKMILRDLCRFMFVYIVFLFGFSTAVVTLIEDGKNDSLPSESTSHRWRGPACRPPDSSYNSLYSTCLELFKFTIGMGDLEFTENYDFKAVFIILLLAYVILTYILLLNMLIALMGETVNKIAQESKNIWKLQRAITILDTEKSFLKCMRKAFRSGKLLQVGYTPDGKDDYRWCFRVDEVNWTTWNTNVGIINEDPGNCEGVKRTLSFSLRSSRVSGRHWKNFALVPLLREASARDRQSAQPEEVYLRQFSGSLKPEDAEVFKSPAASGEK

On to `CCC1(CC)C[C@@H](NC(=O)Nc2cccc3c2ccc(=O)n3C)c2ccc(Cl)cc2O1` [Example 70, 1-[(4R)-7-chloro-2,2-diethyl-3,4-dihydro-2H-chromen-4-yl]-3-(1-methyl-2-oxo-1,2-dihydroquinolin-5-yl)urea], for which the “human TRPV1 H^+ (max % remain)” value at human TRPV1 [1] is 17%. For the same compound, the negative logarithm of the IC50 (pIC50) (as a rule, −log10 of the IC50, conventionally taken in molar units) on human TRPV1 [2] was 7.54.
Regarding `Cn1c(=O)ccc2c(NC(=O)N[C@@H]3CC(C)(C)Oc4cc(Br)ccc43)cccc21` [Example 89, 1-[(4R)-7-bromo-2,2-dimethyl-3,4-dihydro-2H-chromen-4-yl]-3-(1-methyl-2-oxo-1,2-dihydroquinolin-5-yl)urea], the “human TRPV1 H^+ (max % remain)” value at human TRPV1 [1] is reported as 53%. For the same compound, the negative-log IC50 (pIC50) at human TRPV1 [2] was 7.51.
For `CC1(C)C[C@@H](NC(=O)Nc2ccc3c(c2)NC(=O)CC3)c2ccc(C(F)(F)F)nc2O1` [Example 247, 1-[(4R)-2,2-dimethyl-7-(trifluoromethyl)-3,4-dihydro-2H-pyrano[2,3-b]pyridin-4-yl]-3-(2-oxo-1,2,3,4-tetrahydroquinolin-7-yl)urea], the “human TRPV1 H^+ (max % remain)” value at human TRPV1 [1] worked out at 18%. Also, on human TRPV1 [2], the pIC50 was 7.42.
Turning to `O=C(Nc1ccc2c(c1)NC(=O)N(CCO)C2)N[C@H]1CC2(CCC2)Oc2ccc(F)cc21` [Example 56, 1-[(4S)-6-fluoro-3,4-dihydrospiro[chromene-2,1′-cyclobutan]-4-yl]-3-[3-(2-hydroxyethyl)-2-oxo-1,2,3,4-tetrahydroquinazolin-7-yl]urea], the “human TRPV1 H^+ (max % remain)” value at human TRPV1 [1] is reported as 67%. Moreover, the pIC50 on human TRPV1 [2] was 6.15.
The corresponding values for `CCCC1(CCC)C[C@@H](NC(=O)Nc2ccc3c(c2)N(C)C(=O)CC3)c2cccc(F)c2O1` [Example 271, 1-[(4R)-8-fluoro-2,2-dipropyl-3,4-dihydro-2H-chromen-4-yl]-3-(1-methyl-2-oxo-1,2,3,4-tetrahydroquinolin-7-yl)urea] are 69% and 6.77.
Take `CN1C(=O)CCc2ccc(NC(=O)N[C@@H]3CC(C)(C)Oc4c3cccc4C(F)(F)F)cc21` [Example 256, 1-[(4R)-2,2-dimethyl-8-(trifluoromethyl)-3,4-dihydro-2H-chromen-4-yl]-3-(1-methyl-2-oxo-1,2,3,4-tetrahydroquinolin-7-yl)urea]: the “human TRPV1 H^+ (max % remain)” value at human TRPV1 [1] turned out to be 89%. Moreover, on human TRPV1 [2], the negative logarithm of the IC50 (pIC50) is 6.41.
In the case of “1-[(2S,4R)-2-(fluoromethyl)-2-methyl-7-(trifluoromethyl)-3,4-dihydro-2H-chromen-4-yl]-3-(1-methyl-2-oxo-1,2-dihydroquinolin-5-yl)urea [Example 84]”, on human TRPV1 [1], the “human TRPV1 H^+ (max % remain)” value is 40%. Besides, the pIC50 at human TRPV1 [2] is 7.64.
For `CN1C(=O)CCc2ccc(NC(=O)N[C@@H]3CCOc4cc(OC(F)(F)F)ccc43)cc21` [Example 278, 1-(1-methyl-2-oxo-1,2,3,4-tetrahydroquinolin-7-yl)-3-[(4R)-7-(trifluoromethoxy)-3,4-dihydro-2H-chromen-4-yl]urea], the “human TRPV1 H^+ (max % remain)” value at human TRPV1 [1] came out at 68%. The pIC50 at human TRPV1 [2] is 7.11.
As for `Cn1c(=O)ccc2c(NC(=O)N[C@@H]3CC(C)(C)Oc4c3cccc4C(F)(F)F)cccc21` [Example 93, 1-[(4R)-2,2-dimethyl-8-(trifluoromethyl)-3,4-dihydro-2H-chromen-4-yl]-3-(1-methyl-2-oxo-1,2-dihydroquinolin-5-yl)urea], at human TRPV1 [1], the “human TRPV1 H^+ (max % remain)” value amounted to 47%. At human TRPV1 [2], the pIC50 is 7.41.
The corresponding values for `C[C@@]1(C(F)F)C[C@@H](NC(=O)Nc2ccc3c(c2)NC(=O)CO3)c2ccc(Cl)cc2O1` [Example 322, 1-[(2S,4R)-7-chloro-2-(difluoromethyl)-2-methyl-3,4-dihydro-2H-chromen-4-yl]-3-(3-oxo-3,4-dihydro-2H-1,4-benzoxazin-6-yl)urea] are 76% and 7.34.
On to `Cn1c(=O)ccc2c(NC(=O)N[C@@H]3CCc4cc(C(F)(F)F)ccc43)cccc21` [Example 86, 1-(1-methyl-2-oxo-1,2-dihydroquinolin-5-yl)-3-[(1R)-5-(trifluoromethyl)-2,3-dihydro-1H-inden-1-yl]urea], for which the “human TRPV1 H^+ (max % remain)” value at human TRPV1 [1] is 23%. The pIC50 at human TRPV1 [2] was 8.00.
Consider `CN1C(=O)CCc2ccc(NC(=O)N[C@@H]3CC4(CCC4)Oc4ccc(F)cc43)cc21` [Example 269, 1-[(4R)-6-fluoro-3,4-dihydrospiro[chromene-2,1′-cyclobutan]-4-yl]-3-(1-methyl-2-oxo-1,2,3,4-tetrahydroquinolin-7-yl)urea], for which, at human TRPV1 [1], the “human TRPV1 H^+ (max % remain)” value is reported as 70%. In addition, the negative logarithm of the IC50 (pIC50) on human TRPV1 [2] is 6.27.
With `CCC1(CC)C[C@@H](NC(=O)Nc2ccc3c(c2)N(C)C(=O)CC3)c2ccc(Cl)c(Cl)c2O1` [Example 264, 1-[(4R)-7,8-dichloro-2,2-diethyl-3,4-dihydro-2H-chromen-4-yl]-3-(1-methyl-2-oxo-1,2,3,4-tetrahydroquinolin-7-yl)urea], on human TRPV1 [1], the “human TRPV1 H^+ (max % remain)” value amounted to 82%. Further, the pIC50 on human TRPV1 [2] is 6.77.
For `CCC1(CC)C[C@@H](NC(=O)Nc2ccc3c(c2)NC(=O)N(C)C3)c2ccc(Cl)cc2O1` [Example 181, 1-[(4R)-7-chloro-2,2-diethyl-3,4-dihydro-2H-chromen-4-yl]-3-(3-methyl-2-oxo-1,2,3,4-tetrahydroquinazolin-7-yl)urea], in that order: 28% and 6.68.
As for `CN1C(=O)NCc2c(NC(=O)N[C@H]3CCOc4cc(OC(F)(F)F)ccc43)cccc21` [Example 169, 1-(1-methyl-2-oxo-1,2,3,4-tetrahydroquinazolin-5-yl)-3-[(4S)-7-(trifluoromethoxy)-3,4-dihydro-2H-chromen-4-yl]urea], on human TRPV1 [1], the “human TRPV1 H^+ (max % remain)” value turned out to be 96%. Further, on human TRPV1 [2], the pIC50 was less than 4.42.
The corresponding values for `CCC1(CC)C[C@@H](NC(=O)Nc2cccc3c2ccc(=O)n3C)c2ccccc2O1` [Example 67, 1-[(4R)-2,2-diethyl-3,4-dihydro-2H-chromen-4-yl]-3-(1-methyl-2-oxo-1,2-dihydroquinolin-5-yl)urea] are 41% and 7.77.
`CN1C(=O)NCc2c(NC(=O)N[C@@H]3CC(CF)(CF)Oc4cc(OC(F)(F)F)ccc43)cccc21` [Example 149, 1-[(4R)-2,2-bis(fluoromethyl)-7-(trifluoromethoxy)-3,4-dihydro-2H-chromen-4-yl]-3-(1-methyl-2-oxo-1,2,3,4-tetrahydroquinazolin-5-yl)urea]: on human TRPV1 [1], the “human TRPV1 H^+ (max % remain)” value was 16%. In addition, at human TRPV1 [2], the negative-log IC50 (pIC50) was 6.92.
